Laboratory results published in the NIST ThermoML archive (doi:10.1016/j.fluid.2006.07.007).

Conditions: Liquid, Ebulliometric method (Recirculating still)

CCO [ethanol]
Conditions | vapor or sublimation pressure [kPa]
292.33 K | 5.593
303.83 K | 10.86
311.14 K | 16.15
317.9 K | 22.84
323.09 K | 29.41
326.8 K | 35.11
330.56 K | 41.76
333.94 K | 48.61
337.18 K | 56.06
339.97 K | 63.2
342.3 K | 69.73
